# Earlier results in patent US20090169586A1, “STABLE PACKAGED DOSAGE FORM AND PROCESS THEREFOR” (priority 2006, published 2009).
# Columns and labels:
# [1] = test system: patients with long-standing non-insulin dependent diabetes mellitus (NIDDM); conditions: 60 mg/day for 3 weeks, 20 NIDDM patients
# [2] = test system: skin's protection against sunburn; conditions: 24 mg taken for more than 10 weeks
# [3] = test system: children exposed to long-term doses of radiation; conditions: 40 mg capsules twice daily for 3 months, 709 children
# [4] = test system: patients with exercise-induced asthma (EIA); conditions: daily dose of 64 mg, 38 patients; all placebo patients showed more than 15% FEV1 reduction
structure (smiles),measurement,setting,value
"CC1=C(/C=C/C(C)=C/C=C/C(C)=C/C=C/C=C(C)/C=C/C=C(C)/C=C/C2=C(C)CCCC2(C)C)C(C)(C)CCC1 [beta-carotene from Dunaliella, beta-carotene]",LDL oxidation,[1],normalised high LDL oxidation
same,skin's protection against sunburn,[2],double the skin's protection against sunburn
same,serum markers for oxidisation,[3],reduced serum markers for oxidisation
same,patients protected against EIA,[4],53%
